From patent US8846928B2 (Portola Pharmaceuticals, Inc., priority 2010, dated 2014) come the findings set out here.

In the test the target is T1, full length active recombinant SYK enzyme (Homo sapiens, UniProt P43405).
T1 construct: full length active recombinant SYK enzyme (Millipore, Calif.); purchased Millipore
Nature of the test: Inhibition of Syk tyrosine phosphorylation activity (LANCE TR-FRET kinase assay). It is filed as biochemical. (Time-resolved FRET reads energy transfer from a long-lived donor to a nearby acceptor.)

For orientation: IC50 means the midpoint of a concentration-inhibition curve. In the case of `NC(=O)c1cc(C(N)=O)c(N[C@@H]2CCCC[C@@H]2N)nc1Nc1cccc(-n2nccn2)c1` [Example 116, 2-(3-(2H-1,2,3-triazol-2-yl)phenylamino)-6-((1R,2S)-2-aminocyclohexylamino)pyridine-3,5-dicarboxamide], the half-maximal inhibitory concentration (IC50) lay within 100 to 1000 nM. Turning to `N#Cc1cc(C(N)=O)c(Nc2ccc3[nH]ncc3c2)nc1N[C@@H]1CCCC[C@@H]1N` [Example 117], the IC50 lay in the range of 1 to 10 nM. With `N#Cc1cc(C(N)=O)c(Nc2ccc3ncsc3c2)nc1N[C@@H]1CCCC[C@@H]1N` [Example 118, 6-((1R,2S)-2-aminocyclohexylamino)-2-(benzo[d]thiazol-6-ylamino)-5-cyanonicotinamide] the figure was 1 to 10 nM.

With `N#Cc1cc(C(N)=O)c(Nc2ccc3ncsc3c2)nc1NC[C@@H](N)C1CC1` [Example 119, (S)-6-(2-amino-2-cyclopropylethylamino)-2-(benzo[d]thiazol-6-ylamino)-5-cyanonicotinamide], the IC50 was in the range of 10 to 100 nM.

With `Cn1ncc2c(Nc3nc(N[C@@H]4CCCC[C@@H]4N)c(C#N)cc3C(N)=O)cccc21` [Example 120, 6-((1R,2S)-2-aminocyclohexylamino)-5-cyano-2-(1-methyl-1H-indazol-4-ylamino)nicotinamide], the IC50 lay within 1 to 10 nM. Consider `N#Cc1cc(C(N)=O)c(Nc2ccc(-n3cccn3)cc2)nc1N[C@@H]1CCCC[C@@H]1N` [Example 121, 2-(4-(1H-pyrazol-1-yephenylamino)-6-(1R,2S)-2-aminocyclohexylamino)-5-cyanonicotinamide], for which the half-inhibitory concentration (IC50) is 10 to 100 nM. Turning to `CC(C)C[C@H](CN)Nc1nc(Nc2ccc3ncccc3c2)c(C(N)=O)cc1C#N` [Example 122, (R)-6-(1-amino-4-methylpentan-2-ylamino)-5-cyano-2-(quinolin-6-ylamino)nicotinamide], the IC50 is 1 to 10 nM. In the case of `CC(C)C[C@H](CN)Nc1nc(Nc2ccc3ncsc3c2)c(C(N)=O)cc1C#N` [Example 123, (R)-6-(1-amino-4-methylpentan-2-ylamino)-2-(benzo[d]thiazol-6-ylamino)-5-cyanonicotinamide], the half-inhibitory concentration (IC50) lay in the range of 1 to 10 nM. With `CC(C)C[C@@H](Nc1nc(Nc2ccc3ncccc3c2)c(C(N)=O)cc1C#N)C(N)=O` [Example 124, (R)-6-(1-amino-4-methyl-1-oxopentan-2-ylamino)-2-(quinolin-6-ylamino)-5-cyanonicotinamide], the 50% inhibitory concentration (IC50) lay in the range of 10 to 100 nM.

For `CC(C)C[C@@H](Nc1nc(Nc2cccc(-n3nccn3)c2)c(C(N)=O)cc1C#N)C(N)=O` [Example 125, (R)-2-(3-(2H-1,2,3-triazol-2-yl)phenylamino)-6-(1-amino-4-methyl-1-oxopentan-2-ylamino)-5-cyanonicotinamide], the concentration for half-maximal inhibition (IC50) fell in the range of 100 to 1000 nM. With `CC(C)[C@@H](Nc1nc(Nc2cccc(-n3nccn3)c2)c(C(N)=O)cc1C#N)C(N)=O` [Example 126, (R)-2-(3-(2H-1,2,3-triazol-2-yl)phenylamino)-6-(1-amino-3-methyl-1-oxobutan-2-ylamino)-5-cyanonicotinamide] the figure was above 1000 nM; with `CC(C)[C@H](CN)Nc1nc(Nc2ccc3ncccc3c2)c(C(N)=O)cc1C#N` [Example 128, (R)-6-(1-amino-3-methylbuttan-2-ylamino)-5-cyano-2-(quinolin-6-ylamino)nicotinamide], 1 to 10 nM.

As to `N#Cc1cc(C(N)=O)c(Nc2cnc3ccccc3c2)nc1N[C@@H]1CCCC[C@@H]1N` [Example 129], the IC50 fell in the range of 1 to 10 nM. The result for `N#Cc1cc(C(N)=O)c(Nc2cccc(-c3ncccn3)c2)nc1N[C@@H]1CCCC[C@@H]1N` [Example 130] reads 1 to 10 nM; that for `N#Cc1cc(C(N)=O)c(Nc2cccc(-c3ccccn3)c2)nc1N[C@@H]1CCCC[C@@H]1N` [Example 131, 6-((1R,2S)-2-aminocyclohexylamino)-5-cyano-2-(3-(pyridin-2-yl)phenylamino)nicotinamide], 1 to 10 nM. The result for `NC(=O)c1ccc(N[C@@H]2CCCC[C@@H]2N)nc1Nc1cccc(-n2nccn2)c1` [Example 132, 2-(3-(2H-1,2,3-triazol-2-yl)phenylamino)-6-((1R,2S)-2-aminocyclohexylamino)nicotinamide] reads 1 to 10 nM; that for `NC(=O)c1ccc(N[C@@H]2CCCC[C@@H]2N)nc1Nc1cccc(-c2ncccn2)c1` [Example 133, 2-(3-(pyrimidin-2-yl)phenylamino)-6-((1R,2S)-2-aminocyclohexylamino)nicotinamide], 10 to 100 nM; that for `NC(=O)c1ccc(N[C@@H]2CCCC[C@@H]2N)nc1Nc1ccc2ncccc2c1` [Example 134, 2-(quinolin-6-ylamino)-6-((1R,2S)-2-aminocyclohexylamino)nicotinamide], 1 to 10 nM. The result for `NC(=O)c1ccc(N[C@@H]2CCCC[C@@H]2N)nc1Nc1ccc2cnccc2c1` [Example 135, 2-(isoquinolin-6-ylamino)-6-((1R,2S)-2-aminocyclohexylamino)nicotinamide] reads 1 to 10 nM; that for `Cn1ncc2c(Nc3nc(N[C@@H]4CCCC[C@@H]4N)c(F)cc3C(N)=O)cccc21` [Example 136, 2-(1-methyl-1H-indazol-4-ylamino)-6-((1R,2S)-2-aminocyclohexylamino)-5-fluoronicotinamide], 1 to 10 nM. Regarding `NC(=O)c1ccc(N[C@@H]2CCCC[C@@H]2N)nc1Nc1ccc2ccncc2c1` [Example 137, 2-(isoquinolin-7-ylamino)-6-((1R,2S)-2-aminocyclohexylamino)nicotinamide], the IC50 was in the range of 1 to 10 nM. The result for `NC(=O)c1ccc(N[C@@H]2CCCC[C@@H]2N)nc1Nc1cccc(-n2cncn2)c1` [Example 138, 2-(3-(1H-1,2,4-triazol-1-yephenylamino)-6-(1R,2S)-2-aminocyclohexylamino)nicotinamide] reads 1 to 10 nM; that for `Cn1ncc2cc(Nc3nc(N[C@@H]4CCCC[C@@H]4N)c(F)cc3C(N)=O)ccc21` [Example 139, 2-(1-methyl-1H-indazol-5-ylamino)-6-((1R,2S)-2-aminocyclohexylamino)-5-fluoronicotinamide], 1 to 10 nM.

`NC(=O)c1cc(F)c(N[C@H]2CCCNC2)nc1Nc1ccc2ncccc2c1` [Example 143, (S)-5-fluoro-6-(piperidin-3-ylamino)-2-(quinolin-6-ylamino)nicotinamide]: the half-maximal inhibitory concentration (IC50) is above 1000 nM. Regarding `Cc1cc(Nc2cc(N[C@@H]3CCCC[C@@H]3N)ccc2C(N)=O)on1` [Example 147, 4-((1R,2S)-2-aminocyclohexylamino)-2-(3-methylisoxazol-5-ylamino)benzamide], the 50% inhibitory concentration (IC50) was in the range of 100 to 1000 nM. As to `NC(=O)c1cc(F)c(N[C@@H]2CCCC[C@@H]2N)nc1Nc1cnc2ncccc2c1` [Example 150, 2-(1,8-naphthyridin-3-ylamino)-6-((1R,2S)-2-aminocyclohexylamino)-5-fluoronicotinamide], the 50% inhibitory concentration (IC50) lay in the range of 1 to 10 nM. Consider `NC(=O)c1cc(F)c(N[C@@H]2CCCC[C@@H]2N)nc1Nc1ccnc2ncccc12` [Example 151, 2-(1,8-naphthyridin-4-ylamino)-6-((1R,2S)-2-aminocyclohexylamino)-5-fluoronicotinamide], for which the IC50 was in the range of 1 to 10 nM. Regarding `NC(=O)c1cc(F)c(N[C@@H]2CCCC[C@@H]2N)nc1Nc1cncnc1` [Example 152, 6-((1R,2S)-2-aminocyclohexylamino)-5-fluoro-2-(pyrimidin-5-ylamino)nicotinamide], the half-maximal inhibitory concentration (IC50) was in the range of 100 to 1000 nM.
